In the supplement of paper PMC10883282:
± gives the standard deviation of the averaged measurements.

Tests used:
Test in all cases: relative viability vs DMSO control (72 h) (fraction); higher = more viable cells
HT1080 = system: HT1080
In short: (§1)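 Sarcoma cell lines were seeded in 384-well plates at densities set to reach 80–90% confluence. After 24 h, 2.5 µl of serially diluted compound was added (source plates 10 mM to 0.0002 mM), and plates were held 72 h at 37 °C, 5% CO2, with 0.1% DMSO vehicle and a 5 µM positive control. Relative viability came from ATPLite readings as percent growth, averaged over up to triplicate wells. Data were rescaled so full viability equals 1 and none equals 0.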

KHOS-NP = system: KHOS-NP
In short: as §1

SK-ES-1 = system: SK-ES-1
In short: as §1

RD-ES = system: RD-ES
In short: as §1

SW982 = system: SW982
In short: as §1

KHOS-240S = system: KHOS-240S
In short: as §1

G401 = system: G401
In short: as §1

A204 = system: A204
In short: as §1

SW1353 = system: SW1353
In short: as §1

SW872 = system: SW872
In short: as §1

SYO-1 = system: SYO-1
In short: as §1

SW684 = system: SW684
In short: as §1

CCN1C(=O)N(c2c(F)c(OC)cc(OC)c2F)Cc2cnc3[nH]c(CN4CCOCC4)cc3c21 [Pemigatinib]
Details	relative viability
A204, 0.00017 µM	1.04 ± 0.057
A204, 0.00051 µM	1.02 ± 0.04
A204, 0.00152 µM	0.98 ± 0.046
A204, 0.00457 µM	0.991 ± 0.052
A204, 0.01372 µM	0.843 ± 0.081
A204, 0.04115 µM	0.709 ± 0.029
A204, 0.1235 µM	0.599 ± 0.032
A204, 0.3704 µM	0.565 ± 0.038
A204, 1.111 µM	0.516 ± 0.025
A204, 3.333 µM	0.379 ± 0.012
A204, 10 µM	0.333 ± 0.0092
G401, 0.00017 µM	0.978 ± 0.036
G401, 0.00051 µM	0.982 ± 0.011
G401, 0.00152 µM	0.93 ± 0.028
G401, 0.00457 µM	0.8789 ± 0.0083
G401, 0.01372 µM	0.746 ± 0.034
G401, 0.04115 µM	0.7 ± 0.02
G401, 0.1235 µM	0.614 ± 0.015
G401, 0.3704 µM	0.585 ± 0.042
G401, 1.111 µM	0.518 ± 0.0062
G401, 3.333 µM	0.379 ± 0.0057
G401, 10 µM	0.349 ± 0.0097
HT1080, 0.00017 µM	1.05 ± 0.027
HT1080, 0.00051 µM	1.09 ± 0.054
HT1080, 0.00152 µM	1.06 ± 0.033
HT1080, 0.00457 µM	1.06 ± 0.067
HT1080, 0.01372 µM	1.036 ± 0.0098
HT1080, 0.04115 µM	1.1 ± 0.021
HT1080, 0.1235 µM	1.09 ± 0.064
HT1080, 0.3704 µM	1.07 ± 0.017
HT1080, 1.111 µM	1.104 ± 0.003
HT1080, 3.333 µM	0.875 ± 0.012
HT1080, 10 µM	0.807 ± 0.0091
KHOS-240S, 0.00017 µM	1.03 ± 0.016
KHOS-240S, 0.00051 µM	1.03 ± 0.046
KHOS-240S, 0.00152 µM	0.999 ± 0.029
KHOS-240S, 0.00457 µM	1 ± 0.038
KHOS-240S, 0.01372 µM	0.943 ± 0.019
KHOS-240S, 0.04115 µM	0.917 ± 0.021
KHOS-240S, 0.1235 µM	0.884 ± 0.0099
KHOS-240S, 0.3704 µM	0.862 ± 0.025
KHOS-240S, 1.111 µM	0.841 ± 0.03
KHOS-240S, 3.333 µM	0.789 ± 0.024
KHOS-240S, 10 µM	0.687 ± 0.027
KHOS-NP, 0.00017 µM	1.09 ± 0.016
KHOS-NP, 0.00051 µM	1.06 ± 0.027
KHOS-NP, 0.00152 µM	1.088 ± 0.0061
KHOS-NP, 0.00457 µM	1.088 ± 0.0087
KHOS-NP, 0.01372 µM	1.055 ± 0.0086
KHOS-NP, 0.04115 µM	1.065 ± 0.0077
KHOS-NP, 0.1235 µM	1.07 ± 0.012
KHOS-NP, 0.3704 µM	1.05 ± 0.02
KHOS-NP, 1.111 µM	1.06 ± 0.021
KHOS-NP, 3.333 µM	1.08 ± 0.012
KHOS-NP, 10 µM	1.05 ± 0.029
RD-ES, 0.00017 µM	0.959 ± 0.03
RD-ES, 0.00051 µM	0.951 ± 0.036
RD-ES, 0.00152 µM	0.953 ± 0.041
RD-ES, 0.00457 µM	0.959 ± 0.015
RD-ES, 0.01372 µM	0.964 ± 0.016
RD-ES, 0.04115 µM	0.955 ± 0.021
RD-ES, 0.1235 µM	0.952 ± 0.012
RD-ES, 0.3704 µM	0.958 ± 0.051
RD-ES, 1.111 µM	0.859 ± 0.014
RD-ES, 3.333 µM	0.7215 ± 0.0045
RD-ES, 10 µM	0.54 ± 0.028
SK-ES-1, 0.00017 µM	0.969 ± 0.028
SK-ES-1, 0.00051 µM	0.963 ± 0.041
SK-ES-1, 0.00152 µM	0.989 ± 0.04
SK-ES-1, 0.00457 µM	0.965 ± 0.034
SK-ES-1, 0.01372 µM	0.935 ± 0.021
SK-ES-1, 0.04115 µM	0.972 ± 0.043
SK-ES-1, 0.1235 µM	0.89 ± 0.054
SK-ES-1, 0.3704 µM	0.816 ± 0.034
SK-ES-1, 1.111 µM	0.599 ± 0.021
SK-ES-1, 3.333 µM	0.354 ± 0.012
SK-ES-1, 10 µM	0.2767 ± 0.0018
SW684, 0.00017 µM	1.1 ± 0.053
SW684, 0.00051 µM	1.12 ± 0.056
SW684, 0.00152 µM	1.13 ± 0.017
SW684, 0.00457 µM	1.07 ± 0.04
SW684, 0.01372 µM	1.12 ± 0.024
SW684, 0.04115 µM	1.07 ± 0.064
SW684, 0.1235 µM	1.05 ± 0.1
SW684, 0.3704 µM	1.13 ± 0.048
SW684, 1.111 µM	1.1 ± 0.04
SW684, 3.333 µM	0.971 ± 0.017
SW684, 10 µM	0.802 ± 0.028
SW872, 0.00017 µM	1.02 ± 0.037
SW872, 0.00051 µM	1.01 ± 0.033
SW872, 0.00152 µM	1 ± 0.072
SW872, 0.00457 µM	1.02 ± 0.031
SW872, 0.01372 µM	0.999 ± 0.025
SW872, 0.04115 µM	0.999 ± 0.073
SW872, 0.1235 µM	0.964 ± 0.065
SW872, 0.3704 µM	0.975 ± 0.053
SW872, 1.111 µM	0.911 ± 0.026
SW872, 3.333 µM	0.739 ± 0.013
SW872, 10 µM	0.713 ± 0.021
SW982, 0.00017 µM	0.989 ± 0.025
SW982, 0.00051 µM	0.978 ± 0.045
SW982, 0.00152 µM	0.98 ± 0.026
SW982, 0.00457 µM	1 ± 0.015
SW982, 0.01372 µM	0.985 ± 0.015
SW982, 0.04115 µM	0.979 ± 0.012
SW982, 0.1235 µM	0.992 ± 0.02
SW982, 0.3704 µM	0.968 ± 0.071
SW982, 1.111 µM	0.715 ± 0.027
SW982, 3.333 µM	0.511 ± 0.016
SW982, 10 µM	0.438 ± 0.041
SW1353, 0.00017 µM	1.06 ± 0.042
SW1353, 0.00051 µM	1.02 ± 0.014
SW1353, 0.00152 µM	1.02 ± 0.04
SW1353, 0.00457 µM	0.964 ± 0.024
SW1353, 0.01372 µM	0.886 ± 0.012
SW1353, 0.04115 µM	0.879 ± 0.011
SW1353, 0.1235 µM	0.863 ± 0.036
SW1353, 0.3704 µM	0.843 ± 0.051
SW1353, 1.111 µM	0.836 ± 0.014
SW1353, 3.333 µM	0.716 ± 0.015
SW1353, 10 µM	0.539 ± 0.011
SYO-1, 0.00017 µM	0.97 ± 0.0037
SYO-1, 0.00051 µM	0.962 ± 0.03
SYO-1, 0.00152 µM	0.89 ± 0.055
SYO-1, 0.00457 µM	0.86 ± 0.055
SYO-1, 0.01372 µM	0.774 ± 0.1
SYO-1, 0.04115 µM	0.763 ± 0.067
SYO-1, 0.1235 µM	0.733 ± 0.071
SYO-1, 0.3704 µM	0.725 ± 0.056
SYO-1, 1.111 µM	0.687 ± 0.056
SYO-1, 3.333 µM	0.652 ± 0.018
SYO-1, 10 µM	0.635 ± 0.028
